Test results as given in PMC5834442, “Identifying inhibitors of the Leishmania inositol phosphorylceramide synthase with antiprotozoal activity using a yeast-based assay and ultra-high throughput screening platform” (Scientific Reports, 2018).
Where two headings read alike, the source gives them in different places.

What was measured:
[1] = tested on: L. donovani (MHOM/SD/62/1S-CL2D, LdBOB) axenic amastigotes; test: Leishmania donovani axenic amastigote dose response assay (resazurin); format: cell-based; settings: -logIC50 mol against L. donovani (LdBOB) axenic amastigotes, read-out: pIC50 Axenic (converted)
HepG2 cells = test: Mammalian cell cytotoxicity assay (CellTiter-Glo); format: cell-based, human; settings: for IC50: Homo sapiens, -logIC50 mol against HepG2, read-out: PIC50 HepG2 (converted)
[2] = selectivity: pIC50 axenic minus pIC50 HepG2
[3] = selectivity, pIC50 axenic minus pIC50 HepG2

SMILES | IC50 [1] | IC50 (HepG2 cells) | pSI v HepG2 (HepG2 cells; [2]) | pSI v HepG2 (HepG2 cells; [3]) | pSI v HepG2 (HepG2 cells)
COc1ccccc1-c1nn(-c2c(C)cccc2C)c2[nH]c(=O)cc(C(F)(F)F)c12 [ST/1471361] | 7.94 µM | > 100 µM | 1.10 |  | 
Cc1[nH]c2ccccc2c(=O)c1Cc1ccc(C(F)(F)F)cc1 [4671W 92C*A] | 1.17 µM | > 100 µM | 1.93 |  | 
O=C(Nc1ccc2scnc2c1)c1ccc(Cl)s1 [ST/1127597] | 6.46 µM | 97.7 µM | 1.18 |  | 
O=C(Nc1nnc(-c2ccccc2)o1)c1ccc2c(c1)CCCC2 [ST/912241] | 1.23 µM | > 100 µM |  | 1.91 | 
O=C(Nc1nnc(C(F)(F)F)s1)c1ccc([N+](=O)[O-])c(Cl)c1 [ST/640830] | 2.95 µM | 25.7 µM | 0.94 |  | 
O=[N+]([O-])c1ccc(NS(=O)(=O)c2ccccc2)c(-c2ccccc2)c1 [VDPP/14/72/1] | 5.01 µM | 35.5 µM |  | 0.85 | 
Cc1[nH]c2ccccc2c(=O)c1Cc1ccc(OC(F)(F)F)cc1 [4598W 92C*A] | 1.55 µM | 95.5 µM | 1.79 |  | 
Clc1ccc(Cn2nnc(-c3ccc(CN4CCOCC4)cc3)n2)cc1 [ST/852088] | 3.24 µM | > 100 µM |  | 1.49 | 
Cc1ccc(NC(=O)Nc2ccc(Cl)c([N+](=O)[O-])c2)cc1 [ST/875327] | 9.55 µM | 22.9 µM |  | 0.38 | 
O=C(Nc1cc(-c2nc3ccccc3[nH]2)ccc1Cl)c1ccc(Cl)c([N+](=O)[O-])c1 [ST/1193938] | 8.71 µM | 22.9 µM | 0.42 |  | 
O=C(c1cccc(F)c1)c1coc2ccc(Br)cc2c1=O [ST/472875] | 2.29 µM | 63.1 µM | 1.44 |  | 
N#Cc1nc(-c2ccccc2)oc1S(=O)(=O)c1ccc(Br)cc1 [ST/1197083] | 0.363 µM | 60.3 µM | 2.22 |  | 
Cc1ccc(-c2cnc(N)c(-c3nc4ccc(F)cc4[nH]3)c2)cc1 [HL209813-065A1] | 7.59 µM | 75.9 µM | 1.00 |  | 
C=CCSc1nsc(NC(=O)Nc2ccc(Cl)cc2C(F)(F)F)n1 [ST/566960] | 0.501 µM | 23.4 µM | 1.67 |  | 
N#Cc1ccccc1Cn1cc(C(=O)c2ccccc2)c2ccccc21 [ST/1274537] | 3.55 µM | > 100 µM |  |  | 1.45
O=C(Nc1ccc(Cl)c(Cl)c1)Nc1ccc(F)c([N+](=O)[O-])c1 [ST/1276812] | 3.55 µM | 10 µM | 0.45 |  | 
OCc1ccn2nc(-c3ccc(F)cc3)c(-c3ccncc3)c2c1 [U11871/14/3] | 1.91 µM | > 100 µM |  | 1.72 | 
O=C(Nc1ccc2ncsc2c1)c1ccc(Br)s1 [ST/1280764] | 6.92 µM | > 100 µM | 1.16 |  | 
O=C(Nc1ccccc1Cl)C(=Cc1cccc(F)c1)C(=O)Nc1ccccc1Cl [ST/786453] | 0.204 µM | 6.76 µM | 1.52 |  | 
Cc1ccc(-c2ccnc(-c3ccc(O)cc3)n2)cc1 [SC/128042] | 6.61 µM | > 100 µM | 1.18 |  | 
Cc1ccc(S(=O)(=O)Nc2cc(Cl)c(Cl)cc2Cl)cc1 [ST/411835] | 7.08 µM | > 100 µM | 1.15 |  | 
O=C(Nc1nnc(C(F)(F)F)s1)c1ccc(Cl)cc1 [ST/570135] | 3.47 µM | 16.2 µM | 0.67 |  | 
O=C(Nc1ccc(OC(F)(F)F)cc1)Nc1ccc([N+](=O)[O-])cc1 [ST/500242] | 4.27 µM | 14.1 µM | 0.52 |  | 
COc1cc([N+](=O)[O-])ccc1NC(=O)Nc1ccc(OC(F)(F)F)cc1 [ST/871026] | 6.92 µM | 13.2 µM |  | 0.28 | 
O=C(Nc1cc(C(F)(F)F)ccc1Cl)c1ccccc1O [SC/67526] | 5.25 µM | 15.1 µM | 0.46 |  | 
N#Cc1ccc(C=C(C(=O)Nc2ccccc2Cl)C(=O)Nc2ccccc2Cl)cc1 [ST/786454] | 0.0741 µM | 3.63 µM | 1.69 |  | 

SMILES | IC50 [1] | IC50 (HepG2 cells) | pSI v HepG2 (HepG2 cells; [2]) | pSI v HepG2 (HepG2 cells; [3]) | pSI v HepG2 (HepG2 cells)
O=C(Nc1cccc(Cl)c1)Nc1ccc2nnsc2c1 [SC/98031] | 6.61 µM | 17.8 µM | 0.43 |  | 
C=CCOc1ccc(-c2nc(-c3ccc4c(c3)CCNCC4)no2)cc1Cl.Cl [N11110-83-1] | 7.94 µM | 4.37 µM | -0.26 |  | 
O=C(NC1CCN(S(=O)(=O)c2ccc(O[C@@H]3CCNC3)cc2)CC1)c1ccc(Cl)c(Cl)c1 [AS45234-005A4B2C1D4] | > 50 µM |  |  |  | 
COc1ccc(Cl)cc1NC(=O)Nc1cccc(Br)c1 [C2180/12/1] | 4.79 µM | 66.1 µM | 1.14 |  | 
O=C(Nc1nc2ccc([N+](=O)[O-])cc2s1)c1cc(Cl)sc1Cl [ST/489542] | 1.29 µM | 10 µM | 0.89 |  | 
CCN(C(=O)Cc1c(C(=O)O)[nH]c2ccccc12)c1cc(C)ccc1C [ST/728445] | 18.2 µM |  |  |  | 
Cc1cc(-c2nc3cc(Cl)ccc3o2)ccc1N [ST/880430] | 26.9 µM |  |  |  | 
COc1ccc(S(=O)(=O)Nc2cc(Cl)ccc2C)c(C)c1C [ST/724177] | 19.1 µM |  |  |  | 
CC1CSC(N(C(=O)CN2CSCC2=O)c2ccc(Cl)cc2)=N1 (centres unmarked) [ST/812474] | > 50 µM |  |  |  | 
CNC(=O)CN(C)c1nc(-c2cccs2)nc2sc(C)c(C)c12 [ST/1245806] | > 50 µM |  |  |  | 
Clc1cccc(Nc2nc(-c3ccncc3)cs2)c1 [ST/755059] | 6.76 µM | 32.4 µM | 0.68 |  | 
CC(=O)N1N=C(COc2ccc(Cl)c(C)c2)OC1c1ccc(C)o1 (centres unmarked) [ST/1451045] | 19.1 µM |  |  |  | 
Cc1cc(O)c(Cl)c(C)c1NS(=O)(=O)c1ccc(Br)cc1 [ST/835722] | 26.9 µM |  |  |  | 
CN1CCC(Oc2cccc(C(=O)N3CCC(CNS(=O)(=O)c4cccc(F)c4)CC3)c2)CC1 [DS205504-126A32B5C8] | > 50 µM |  |  |  | 
COc1cccc2[nH]c(C(=O)Nc3cccc(Cl)c3)cc12 [ST/803957] | 12.3 µM |  |  |  | 
O=C(NCc1ccc2c(c1)OCO2)c1ccccc1NS(=O)(=O)c1cccs1 [ST/1217724] | 11.5 µM |  |  |  | 
CN1CCN(CC(=O)Nc2ccc(C(F)(F)F)cc2)CC1c1ccccc1 (centres unmarked) [ST/961463] | > 50 µM |  |  |  | 
CC1(C)CCC(=Cc2ccc(Cl)cc2)CC1(O)Cn1ccnc1 (centres unmarked) [ST/1098001] | 5.5 µM | 46.8 µM | 0.93 |  | 
CCn1ncc2c(N[C@H]3CCCC[C@H]3C(=O)O)c(C(=O)NCc3ccccc3)cnc21 [R10565/35/4] | > 50 µM |  |  |  | 
Fc1ccc(CNc2ncc(-c3ccncc3)c(-c3ccoc3)n2)cc1 [ST/945994] | > 50 µM |  |  |  | 
O[C@@](Cn1cncn1)(c1ccc(F)cc1F)C1CCOCC1 [RB/854/3] | > 50 µM |  |  |  | 
O=C1CCc2cc(-c3csc(-c4ccsc4)n3)ccc2N1 [ST/1544102] | > 50 µM |  |  |  | 
Cc1ccccc1C(=O)N(Cc1cccnc1)c1nc2c(F)cccc2s1 [ST/1131244] | 8.13 µM | 52.5 µM | 0.81 |  | 
O=C(NCc1ccco1)c1ccccc1NS(=O)(=O)c1cccs1 [ST/662660] | 20.4 µM |  |  |  | 
CCOc1ccc(C(C)C)cc1S(=O)(=O)n1ccnc1 [ST/1289929] | 10.5 µM |  |  |  | 
O=C(NC1=NN(c2ccc(Cl)c(Cl)c2)CC1)c1ncccn1 [N7030-10-104] | > 50 µM |  |  |  | 

SMILES | IC50 [1] | IC50 (HepG2 cells) | pSI v HepG2 (HepG2 cells; [2]) | pSI v HepG2 (HepG2 cells; [3]) | pSI v HepG2 (HepG2 cells)
O=S(=O)(Nc1ccccc1C(F)(F)F)c1ccc(-c2cccs2)s1 [DJ107456-053A67] | 14.8 µM |  |  |  | 
CC1CSC(N(C(=O)CCc2ccco2)c2ccc(Cl)cc2)=N1 (centres unmarked) [ST/816400] | 21.9 µM |  |  |  | 
Cc1cc(C)n2nc(S(=O)(=O)Nc3c(Cl)cccc3Cl)nc2n1 [ST/833860] | 41.7 µM |  |  |  | 
Cc1ccc(-c2nc3ccccc3[nH]2)cc1NC(=O)c1cc2ccccc2o1 [ST48766-047X8] | 11.7 µM |  |  |  | 
O=C(Nc1cccc(C(F)(F)F)c1)c1cc(-c2cccc(O)c2)on1 [ST/728737] | > 50 µM |  |  |  | 
O=C(NC1=NN(c2ccc(Cl)c(Cl)c2)CC1)c1ccncc1 [N11828-23-3] | > 50 µM |  |  |  | 
N=c1nc2n(c(=N)[nH]1)NC(c1ccc(Cl)cc1)=CS2 [ST/1850161] | 47.9 µM |  |  |  | 
Cc1oc2cc(O)ccc2c(=O)c1-c1nc2ccccc2s1 [ST/517902] | > 50 µM |  |  |  | 
Cc1cccc(Nc2cccc3c(=O)[nH][nH]c(=O)c23)c1C [78/118] | > 50 µM |  |  |  | 
Cc1ccc2[nH]c(COc3ccc(Cl)cc3)nc2c1 [ST/743143] | 29.5 µM |  |  |  | 
O=c1cc(-c2ccccc2O)oc2ccccc12 [SC/32543] | > 50 µM |  |  |  | 
N#Cc1ccc(Cn2cc(C(=O)c3cccs3)c3ccccc32)cc1 [ST/516872] | 14.8 µM |  |  |  | 
CCc1ccccc1Oc1cncc(-c2nc3ccccc3[nH]2)n1 [ST/1138848] | > 50 µM |  |  |  | 
Nc1ccc(-c2nc3cc(Cl)cc(Cl)c3o2)cc1 [ST/525525] | 49 µM |  |  |  | 
CNS(=O)(=O)c1ccc(NC(=O)c2csc(C)c2-c2ccccc2)cc1 [ST/937316] | 38.9 µM |  |  |  | 
COc1ccc(C(=O)c2nocc2C(=O)c2ccc(Cl)cc2)cc1 [ST/261550] | 44.7 µM |  |  |  | 
O=C(c1cccs1)c1conc1C(=O)c1ccc(Br)cc1 [ST/261533] | > 50 µM |  |  |  | 
Cc1cccn2c(=O)c(C(=O)NCc3ccncc3)c(O)nc12 [ST/1129403] | > 50 µM |  |  |  | 
Fc1ccc(-c2nc(-c3cccs3)[nH]c2-c2ccncc2)cc1 [JMS-15898-298-1] | 20.9 µM |  |  |  | 
CSc1nsc(NC(=O)Nc2ccc(Cl)cc2)n1 [ST/905433] | 30.2 µM |  |  |  | 
Cc1ccccc1NC(=O)COc1ccccc1NS(=O)(=O)c1cccs1 [N6862-82-2] | > 50 µM |  |  |  | 
O=C(NCCc1ccccc1)c1ccccc1NS(=O)(=O)c1cccs1 [ST/648091] | 18.6 µM |  |  |  | 
CC1CCc2c(sc(NC(=O)c3cccs3)c2C#N)C1 (centres unmarked) [SC/95708] | > 50 µM |  |  |  | 
O=C(O)Cc1c(-c2cccs2)nc2ccccc2c1-c1ccccc1 [ST/1080669] | 12.9 µM |  |  |  | 
CCn1cc(C(=O)O)c(=O)c2cc(F)ccc21 [ST/1766829] | 24.5 µM |  |  |  | 
